Data reported in patent US20070191462A1, “Combination of A 5-HT(1) Receptor Agonist and an Alpha-2-Delta Ligand for the Treatment of Migraine” (Pfizer Limited, priority 2004, published 2007).

Tested on: 2nd sensory neuron in the trigeminal nucleus caudalis (TNC)
Assay: rat model of migraine: sensitization induced by inflammatory soup applied to the dura, monitored by electrophysiology in the TNC
Type: in vivo
Conditions: eletriptan given 3 hours after inflammatory soup on the dura; observed as late as 5.5 hours after sensitization

CN1CCC[C@@H]1Cc1c[nH]c2ccc(CCS(=O)(=O)c3ccccc3)cc12 [eletriptan] was tested, and the “reversal of sensitization of responses to sensory stimuli (brush and pin)” value was “did not reverse the sensitization”.
